Source: patent US20120128639A1, “In Vitro Production Of Oligodendrocytes From Human Umbilical Cord Stem Cells” (UNIVERSITY OF CENTRAL FLORIDA RESEARCH FOUNDATION, INC., priority 2009, published 2012)
Where “and” joins values, the source holds several entries; their conditions need not be identical. Identical values can stand only once. Entries after “also recorded” stand apart in the source; their conditions may differ.

What was measured:
[1] = system: human multipotent progenitor cells (MLPCs) from umbilical cord; conditions: 3D environment; for need of the growth factor for process formation: presence or absence in medium
Experimental: MLPCs were seeded on DETA-coated glass coverslips (18 mm) at a density of 4×10^3 cells/cm^2 in growth medium. After 3 days, at about 60% confluency, cells were incubated for 24 hours in pre-induction medium, consisting of DMEM, 15% FBS. FGF-2, EGF (20 ng/ml each, R & D Systems, Minneapolis, Minn.) and PDGF-AA (10 ng/ml, Chemicon International, Temecula, Calif.). To initiate differentiation, the pre-induction medium was removed, the cells were washed 2× with Hanks' balanced salts solution (Gibco BRL) and transferred to serum-free differentiation medium.
Construction of 3D Environment MLPCs were plated on DETA-coated glass coverslips (18 mm) in growth medium. At about 60% confluence, growth medium was replaced with pre-induction medium. After the medium replacement, another set of coverslips was placed on the top of the cells. Prior to the placement, top coverslips were ethanol sterilized and washed in the pre-induction medium. After 24 hours the pre-induction medium was removed, the cells were washed 2× with Hanks' Balanced Salts Solution and transferred to serum-free differentiation medium.
Phase-contrast images were taken with a commercial Nikon Coolpix 990 camera using the Zeiss Axiovert S100 microscope. Pictures were analyzed using Scion Image Software (Scion Corp., Frederick, Md.).
The morphological and immunocytochemical quantification was performed on undifferentiated stem cells or cells during various differentiation stages. For each coverslip, at least 10 pictures were taken from randomly chosen views under 200× magnification. All the marker-positive cells were counted, as well as the total number of cells in these views. At least three coverslips in each group were quantified and data were expressed as average±standard deviation (SD). Statistical differences between different experimental groups were analyzed by Student's t-test.

[2] = system: human multipotent progenitor cells (MLPCs) from umbilical cord; experiment: Immunocytochemical analysis of MLPC differentiation in 3D environment (NE or AR agonists); assay type: cell-based; conditions: for cells stained positively for A2B5 / cells stained positively for MBP / cells stained positively for O4 / cells stained positively for O1 galactocerebroside: 30 days of differentiation, 20 μM added daily
Experimental: To characterize cells by immunocytochemistry, the top coverslips, if present, were first carefully removed. […] Cambridge, Mass.). Following a PBS washing, cells were incubated with an Alexa Fluor 488-conjugated anti-mouse IgG or Alexa Fluor 488-conjugated anti-rabbit IgG for 2 hours at room temperature. After a PBS washing, the coverslips were mounted with Vectashield mounting medium ([…], Vector Laboratories, Burlingame, Calif.) onto slides. For visualizing cellular nuclei, the specimens were counterstained with DAPI. Immunoreactivity was observed and analyzed by using an Ultra VIEWTM LCI confocal imaging system (Perkin Elmer).

[3] = system: human multipotent progenitor cells (MLPCs) from umbilical cord; experiment: Morphological analysis of MLPC differentiation in 2D environment; assay type: cell-based; conditions: for need of the factor for the desired morphology (omission from differentiation medium): 15 days in differentiation medium
Experimental: MLPCs were seeded on DETA-coated glass coverslips (18 mm) at a density of 4×10^3 cells/cm^2 in growth medium. After 3 days, at about 60% confluency, cells were incubated for 24 hours in pre-induction medium, consisting of DMEM, 15% FBS. […] To initiate differentiation, the pre-induction medium was removed, the cells were washed 2× with Hanks' balanced salts solution (Gibco BRL) and transferred to serum-free differentiation medium.

[4] = system: human multipotent progenitor cells (MLPCs) from umbilical cord; experiment: Immunocytochemical analysis of MLPC differentiation into oligodendrocyte lineage in 2D environment; assay type: cell-based
Experimental: (§1) To characterize cells by immunocytochemistry, the top coverslips, if present, were first carefully removed. Cells were then briefly washed with Hanks' balanced salts solution and fixed in 4% paraformaldehyde for about 18 min. Fixed cells were stored in PBS, permeabilized with 0.5% Triton 100× in PBS for 7 min. blocked with 5% donkey serum for 1 hr, followed by incubation with primary antibody overnight at 4° C. Primary antibodies were mouse monoclonal A2B5 (MAB312, 1:250). O4 (MAB345, 1:100). O1 (MAB344, 1:200), MBP (1:25), rabbit polyclonal anti-galactocerebroside (AB142, 1:200), all from Chemicon, mouse monoclonal beta-2-AR (sc-81577, 1:200), rabbit polyclonal beta-1AR (sc-567, 1:250) from Santa Cruz Biotechnology, and alpha-1-AR (ab3462, 1:1000, Abcam Inc. Cambridge, Mass.). Following a PBS washing, cells were incubated with an Alexa Fluor 488-conjugated anti-mouse IgG or Alexa Fluor 488-conjugated anti-rabbit IgG for 2 hours at room temperature. After a PBS washing, the coverslips were mounted with Vectashield mounting medium (H1000, Vector Laboratories, Burlingame, Calif.) onto slides. For visualizing cellular nuclei, the specimens were counterstained with DAPI. Immunoreactivity was observed and analyzed by using an Ultra VIEW™ LCI confocal imaging system (Perkin Elmer).

α1-ARs = experiment: Immunocytochemical analysis of α1-AR expression in MLPCs; assay type: cell-based, human; conditions: undifferentiated MLPCs; 24 hrs treatment with bFGF alone
Experimental: as §1

[5] = 8 days of differentiation, differentiation medium with 20 μM NE

Molecule: NC[C@H](O)c1ccc(O)c(O)c1 [NE, norepinephrine]
- survival of differentiated cells in culture [1]: more than 40 days
- MBP staining ([2]; 20 days of differentiation): negative
- O1 staining ([2]; 20 days of differentiation): negative
- cells stained positively for A2B5 [2]: 57.7% and 57.7±3.6%
- cells stained positively for MBP [2]: 15.2% and 15.2±0.5%
- cells stained positively for O4 [2]: 79.6% and 79.6±2.9%
- need of the factor for the desired morphology (omission from differentiation medium) [3]: essential
- cells that developed multiple processes ([3]; within 8 days of differentiation): approximately 70%
- expression of MBP ([4]; 8 days of differentiation): absent
- cells with positive staining for A2B5 [4, 5]: 72.4% and 72.4±3.4%
- cells with positive staining for O4 [4, 5]: 69.9% and 69.9±4.9%
- cells with positive staining for A2B5 ([4]; day 15 of differentiation): 70.3%
- cells with positive staining for O4 ([4]; day 15 of differentiation): 69.7%
- MBP staining ([4]; day 20 of differentiation): negative
- O1 staining ([4]; day 20 of differentiation): negative
- cells A2B5 positive ([4]; day 20 of differentiation): 35.0% and 35.0±4.8%
- cells O4 positive ([4]; day 20 of differentiation): 49.7% and 49.7±7.9%
- expression of MBP ([4]; differentiating cells, time not stated (FIG. 3B)): absent

Molecule: PDGF
- need of the growth factor for process formation [1]: required

Molecule: bFGF: growth factor in pre-induction and differentiation medium
- need of the growth factor for process formation [1]: not essential
- nuclear expression of α1-ARs (α1-ARs): significant increase in staining intensity; also recorded: increase nuclear expression of α1-ARs

Molecule: CNC[C@H](O)c1cccc(O)c1 [phenylephrine]
- cells with more mature morphology with developed processes ([1]; day 30): 10% and 15%
- cells that began to develop processes ([1]; within 15 days of differentiation): approximately 40%
- cells stained positively for A2B5 [2]: 40.5±3.4%
- cells stained positively for O1 galactocerebroside [2]: 15.2±1.5%
- cells stained positively for O4 [2]: 39.8±2.8%

Molecule: CC(C)NCC(O)c1ccc(O)c(O)c1 (centres unmarked) [isoproterenol]
- cells displaying a bipolar morphology ([1]; daily treatment, first 15 days, unchanged within 30 days): approximately 60%
- cells stained positively for A2B5 [2]: 57.9±4.9%
- cells stained positively for MBP [2]: negative
- cells stained positively for O1 galactocerebroside [2]: negative
- cells stained positively for O4 [2]: 42.5±2.7%

Molecule: COC(=O)[C@@]1(O)C[C@H]2O[C@]1(C)n1c3ccccc3c3c4c(c5c6ccccc6n2c5c31)C(=O)NC4 [K252a]
- need of the factor for the desired morphology (omission from differentiation medium) [3]: essential
